Data: article PMC4503722, “Novel Phenotypic Outcomes Identified for a Public Collection of Approved Drugs from a Publicly Accessible Panel of Assays” (PLoS ONE, 2015)
Read-outs that look alike come from different tables or passages of the source.

What was measured:
Assay in all cases: cells
[1] = test system: endothelial tube formation in co-cultures of ECFCs and ADSCs treated with VEGF; format: cell-based, human
[2] = test system: nuclear β-catenin in C2C12 cells; format: cell-based
INS-1E cells = format: cell-based, rat
NCI-H716 cells = format: cell-based, Human
HeLa cells = format: cell-based; details: for EC50: Homo sapiens, HeLa, read-out: CellCycle G2/M
DLD-1 = format: cell-based; details: Homo sapiens
SW480 = format: cell-based; details: Homo sapiens
HCT116 = format: cell-based; details: Homo sapiens
[3] = test system: HCT116 cells treated with a GSK3β inhibitor; format: cell-based; details: Homo sapiens
SNU-C1 = format: cell-based; details: Homo sapiens, SNU-C1, 72 h, Table 2; 72 h, Cell TiterGlo, non-adherent; 20 coded; read-out: SNU-C1 viab. IC50
[4] = Homo sapiens; read-out: Anti-Angiogenesis
[5] = Mus musculus, C2C12, S2 Table; module primary assay; 20 / 20.1 codes per legend; read-out: Wnt Pathway
[6] = Rattus norvegicus, INS-1E; read-out: Insulin Secretion
[7] = Homo sapiens, NCI-H716; read-out: GLP 1 Secretion
[8] = S2 Table, 20 = no response at highest concentration
[9] = DLD-1, basal, DLD-1, read-out: Basal_Viability ATP DLD-1
[10] = SW480, basal, SW480, read-out: Basal_Viability ATP SW480
[11] = HCT-116, basal, HCT116, read-out: Basal_Viability ATP HCT116
[12] = HCT-116, HCT116 pretreated with GSK3b inhibitor, read-out: GSK3b inh pretreated_Viability ATP HCT116
[13] = Homo sapiens; read-out: Anti-Angio IC50
[14] = Mus musculus, C2C12; read-out: Wnt Pathway
[15] = Mus musculus, C2C12; read-out: Wnt pot. EC50
[16] = Rattus norvegicus, INS-1E; read-out: Ins. sec. EC50
[17] = Homo sapiens, NCI-H716; read-out: GLP1 sec. EC50
[18] = DLD-1, 72 h, Table 2, 72 h, Cell TiterGlo, non-adherent, 20 coded, read-out: DLD-1 viab. IC50
[19] = SW480, 72 h, Table 2, 72 h, Cell TiterGlo, non-adherent, 20 coded, read-out: SW480 viab. IC50
[20] = HCT-116, 72 h, read-out: HCT-116 viab. IC50, Table 2, basal, 72 h, Cell TiterGlo, non-adherent, 20 coded
[21] = HCT-116, read-out: HCT-116 (GSK3β) viab. IC50, Table 2, GSK3β inhibitor LY2090314 20 nM, 72 h, Cell TiterGlo, 20 coded

SMILES | IC50 [1, 4] | EC50 [2, 5] | EC50 (INS-1E cells; [6]) | EC50 (NCI-H716 cells; [7]) | EC50 (HeLa cells; [8]) | IC50 (DLD-1; [9]) | IC50 (SW480; [10]) | IC50 (HCT116; [11]) | IC50 [3, 12] | EC50 (INS-1E cells; [16]) | EC50 (NCI-H716 cells; [17]) | IC50 (DLD-1; [18]) | further results
CCCCCCCCCCCCCCCC[N+](C)(C)CCN(Cc1ccc(OC)cc1)c1ncccn1 [Tonzonium bromide] | 3.07 µM | > 10 µM | > 10 µM | 17.8 µM | > 10 µM | 4.05 µM | 5.08 µM | 3.41 µM | 5.31 µM |  |  |  | 
CN(C)/N=N/c1[nH]cnc1C(N)=O [dacarbazine] | 4.59 µM | > 10 µM | > 10 µM | > 10 µM | > 10 µM | > 20 µM | > 20 µM | > 20 µM | > 20 µM |  |  |  | 
Cc1nc(Nc2ncc(C(=O)Nc3c(C)cccc3Cl)s2)cc(N2CCN(CCO)CC2)n1 [dasatinib, reference compound] |  |  |  |  | > 10 µM | 3.52 µM | 7.02 µM | 11.9 µM |  | > 10 µM | > 10 µM | 3.5 µM | IC50 [1, 13]: > 10 µM; EC50 [2, 14]: 0.0067 µM; EC50 [2, 15]: 0.007 µM; IC50 (SW480; [19]): 7 µM; IC50 (HCT116; [20]): 11.9 µM; IC50 [3, 21]: > 20 µM
Cc1ccc(S(=O)(=O)NC(=O)NN2CC3CCCC3C2)cc1 (stereo not drawn) [gliclazide, reference compound] |  |  | 1.83 µM |  | > 10 µM |  |  |  |  | 1.8 µM | > 10 µM | > 20 µM | IC50 ([1]; Homo sapiens, Table 2; primary assay tube area; 20 = no response in concentration-response, 20.1 = inactive in single concentration testing; read-out: Anti-Angio IC50): > 10 µM; EC50 ([2]; Mus musculus, C2C12, Table 2; C2C12; […]; 20 / 20.1 coded; read-out: Wnt pot. EC50): > 10 µM; G2/M IC50 / EC50 (HeLa cells): 20 (values shown as 20 indicate that the compound was tested in concentration-response and showed no response at the highest concentration tested (e.g. IC50 > 20 μM)); IC50 (SW480; [19]): > 20 µM; IC50 (HCT116; [20]): > 20 µM; IC50 [3, 21]: > 20 µM
O=c1[nH]c(=O)n([C@H]2C[C@H](O)[C@@H](CO)O2)cc1I [idoxuridine] | 0.681 µM | > 10 µM | > 10 µM | > 10 µM | > 10 µM | > 20 µM | > 20 µM | > 20 µM | > 20 µM |  |  |  | 
CC[C@H](C)C(=O)O[C@H]1C[C@@H](C)C=C2C=C[C@H](C)[C@H](CC[C@@H]3C[C@@H](O)CC(=O)O3)[C@H]21 [lovastatin, reference compound] |  |  |  |  |  |  |  |  |  |  |  |  | IC50 ([1]; Homo sapiens, read-out: Anti-Angiogenesis): 3.27 µM; EC50 ([2]; Mus musculus, C2C12, read-out: Wnt Pathway): > 10 µM; EC50 (INS-1E cells; Rattus norvegicus, INS-1E, read-out: Insulin Secretion): > 10 µM; EC50 (NCI-H716 cells; Homo sapiens, NCI-H716, read-out: GLP 1 Secretion): > 20 µM; EC50 (HeLa cells): > 10 µM; IC50 (DLD-1; DLD-1, read-out: Basal_Viability ATP DLD-1): 19.2 µM; IC50 (SW480; SW480, read-out: Basal_Viability ATP SW480): 4.73 µM; IC50 (HCT116; HCT-116, read-out: Basal_Viability ATP HCT116): 1.75 µM; IC50 ([3]; HCT-116, read-out: GSK3b inh pretreated_Viability ATP HCT116): 7.36 µM
CN(Cc1cnc2nc(N)nc(N)c2n1)c1ccc(C(=O)N[C@@H](CCC(=O)O)C(=O)O)cc1 [methotrexate, reference compound] |  |  |  |  | > 10 µM | 0.704 µM |  |  |  | > 10 µM | > 10 µM | 0.7 µM | IC50 [1, 13]: > 10 µM; EC50 [2, 14]: 0.0116 µM; EC50 [2, 15]: 0.012 µM; IC50 (SNU-C1): > 20 µM
